Paper PMC12274840 (The Journal of Biological Chemistry, 2025)
Read-outs that look alike come from different tables or passages of the source.

Test system: E. coli KA797 cells carrying BlaC position 105 library
Format: cell-based, Escherichia coli
Details: for Fi AVG (average fitness): relative to WT Ile; for Fi AVG (average fitness) / Fi MEM AVG: average of replicates

C[C@@H](O)[C@H]1C(=O)N2C(C(=O)O)=C(S[C@@H]3CN[C@H](C(=O)N(C)C)C3)[C@H](C)[C@H]12 [meropenem]
Fi MEM 2 (AA 105 Cys, meropenem, replicate 2): 1.109
Fi MEM 3 (AA 105 Cys, meropenem, replicate 3): -1.611
Fi AVG (average fitness) (AA 105 Gln (BlaC I105Q)): -0.020
Fi MEM AVG (AA 105 Gln, meropenem): -1.909
Fi MEM 2 (AA 105 Gln, meropenem, replicate 2): -1.909
Fi AVG (average fitness) (AA 105 Glu (BlaC I105E)): -0.058
Significance (Fi MEM AVG) (AA 105 Glu, meropenem): -
Fi MEM AVG (AA 105 Glu, meropenem): -1.296
Fi MEM 1 (AA 105 Glu, meropenem, replicate 1): -1.915
Fi MEM 2 (AA 105 Glu, meropenem, replicate 2): 0.069
Fi MEM 3 (AA 105 Glu, meropenem, replicate 3): -2.043
Fi AVG (average fitness) (AA 105 Gly (BlaC I105G)): -0.019
Significance (Fi MEM AVG) (AA 105 Gly, meropenem): -
Fi MEM AVG (AA 105 Gly, meropenem): -1.447
Fi MEM 1 (AA 105 Gly, meropenem, replicate 1): -0.905
Fi MEM 2 (AA 105 Gly, meropenem, replicate 2): -2.832
Fi MEM 3 (AA 105 Gly, meropenem, replicate 3): -0.603
Fi MEM AVG (AA 105 His, meropenem): 0.129
Fi MEM 1 (AA 105 His, meropenem, replicate 1): 1.220
Fi MEM 2 (AA 105 His, meropenem, replicate 2): -0.828
Fi MEM 3 (AA 105 His, meropenem, replicate 3): -0.00649
Fi MEM AVG (AA 105 Ile (WT), meropenem): 0.000
Fi MEM 1 (AA 105 Ile (WT), meropenem, replicate 1): 0.000
Fi MEM 2 (AA 105 Ile (WT), meropenem, replicate 2): 0.000
Fi MEM 3 (AA 105 Ile (WT), meropenem, replicate 3): 0.000
Significance (Fi MEM AVG) (AA 105 Leu, meropenem): -
Fi MEM AVG (AA 105 Leu, meropenem): -1.047
Fi MEM 1 (AA 105 Leu, meropenem, replicate 1): -0.470
Fi MEM 2 (AA 105 Leu, meropenem, replicate 2): -1.669
Fi MEM 3 (AA 105 Leu, meropenem, replicate 3): -1.001
Significance (Fi MEM AVG) (AA 105 Lys, meropenem): -
Fi MEM AVG (AA 105 Lys, meropenem): -2.317
Fi MEM 1 (AA 105 Lys, meropenem, replicate 1): -1.936
Fi MEM 2 (AA 105 Lys, meropenem, replicate 2): -2.755
Fi MEM 3 (AA 105 Lys, meropenem, replicate 3): -2.261
Fi MEM AVG (AA 105 Met, meropenem): -0.579
Fi MEM 1 (AA 105 Met, meropenem, replicate 1): -0.023
Fi MEM 2 (AA 105 Met, meropenem, replicate 2): -0.087
Fi MEM 3 (AA 105 Met, meropenem, replicate 3): -1.628
Significance (Fi MEM AVG) (AA 105 Phe, meropenem): -
Fi MEM AVG (AA 105 Phe, meropenem): -1.123
Fi MEM 1 (AA 105 Phe, meropenem, replicate 1): -0.896
Fi MEM 2 (AA 105 Phe, meropenem, replicate 2): -1.005
Fi MEM 3 (AA 105 Phe, meropenem, replicate 3): -1.468
Fi AVG (average fitness) (AA 105 Pro (BlaC I105P)): -0.044
Significance (Fi MEM AVG) (AA 105 Pro, meropenem): -
Fi MEM AVG (AA 105 Pro, meropenem): -1.653
Fi MEM 1 (AA 105 Pro, meropenem, replicate 1): -2.435
Fi MEM 2 (AA 105 Pro, meropenem, replicate 2): 0.050
Fi MEM 3 (AA 105 Pro, meropenem, replicate 3): -2.575
Significance (Fi MEM AVG) (AA 105 Ser, meropenem): -
Fi MEM AVG (AA 105 Ser, meropenem): -1.018
Fi MEM 1 (AA 105 Ser, meropenem, replicate 1): -0.084
Fi MEM 2 (AA 105 Ser, meropenem, replicate 2): -1.824
Fi MEM 3 (AA 105 Ser, meropenem, replicate 3): -1.144
Fi AVG (average fitness) (AA 105 Thr (BlaC I105T)): -0.015
Significance (Fi MEM AVG) (AA 105 Thr, meropenem): -
Fi MEM AVG (AA 105 Thr, meropenem): -1.775
Fi MEM 1 (AA 105 Thr, meropenem, replicate 1): -1.838
Fi MEM 2 (AA 105 Thr, meropenem, replicate 2): -2.332
Fi MEM 3 (AA 105 Thr, meropenem, replicate 3): -1.155
Fi MEM AVG (AA 105 Trp, meropenem): -0.487
Fi MEM 1 (AA 105 Trp, meropenem, replicate 1): 0.050
Fi MEM 2 (AA 105 Trp, meropenem, replicate 2): -1.403
Fi MEM 3 (AA 105 Trp, meropenem, replicate 3): -0.109
Fi AVG (average fitness) (AA 105 Tyr (BlaC I105Y)): -0.070
Fi MEM AVG (AA 105 Tyr, meropenem): -0.204
Fi MEM 1 (AA 105 Tyr, meropenem, replicate 1): 0.312
Fi MEM 2 (AA 105 Tyr, meropenem, replicate 2): -1.109
Fi MEM 3 (AA 105 Tyr, meropenem, replicate 3): 0.185
Fi AVG (average fitness) (AA 105 Val (BlaC I105V)): -0.016
Fi MEM AVG (AA 105 Val, meropenem): -0.855
Fi MEM 1 (AA 105 Val, meropenem, replicate 1): 0.059
Fi MEM 2 (AA 105 Val, meropenem, replicate 2): -2.574
Fi MEM 3 (AA 105 Val, meropenem, replicate 3): -0.049
WT abs Fi 1 (WT (Ile 105) absolute fitness, meropenem, replicate 1): 0.125
WT abs Fi 2 (WT (Ile 105) absolute fitness, meropenem, replicate 2): 0.070
WT abs Fi 3 (WT (Ile 105) absolute fitness, meropenem, replicate 3): 0.109
